Patent US8778966B2, “Quinolinone derivatives as PARP and tank inhibitors” (Janssen Pharmaceutica, NV, priority 2007, dated 2014)
Read-outs that look alike come from different tables or passages of the source.

Target: T1, TANK-2 enzyme (Homo sapiens, UniProt Q9H2K2)
T1 construct: made in house
T1 sequence (Q9H2K2 1-1166): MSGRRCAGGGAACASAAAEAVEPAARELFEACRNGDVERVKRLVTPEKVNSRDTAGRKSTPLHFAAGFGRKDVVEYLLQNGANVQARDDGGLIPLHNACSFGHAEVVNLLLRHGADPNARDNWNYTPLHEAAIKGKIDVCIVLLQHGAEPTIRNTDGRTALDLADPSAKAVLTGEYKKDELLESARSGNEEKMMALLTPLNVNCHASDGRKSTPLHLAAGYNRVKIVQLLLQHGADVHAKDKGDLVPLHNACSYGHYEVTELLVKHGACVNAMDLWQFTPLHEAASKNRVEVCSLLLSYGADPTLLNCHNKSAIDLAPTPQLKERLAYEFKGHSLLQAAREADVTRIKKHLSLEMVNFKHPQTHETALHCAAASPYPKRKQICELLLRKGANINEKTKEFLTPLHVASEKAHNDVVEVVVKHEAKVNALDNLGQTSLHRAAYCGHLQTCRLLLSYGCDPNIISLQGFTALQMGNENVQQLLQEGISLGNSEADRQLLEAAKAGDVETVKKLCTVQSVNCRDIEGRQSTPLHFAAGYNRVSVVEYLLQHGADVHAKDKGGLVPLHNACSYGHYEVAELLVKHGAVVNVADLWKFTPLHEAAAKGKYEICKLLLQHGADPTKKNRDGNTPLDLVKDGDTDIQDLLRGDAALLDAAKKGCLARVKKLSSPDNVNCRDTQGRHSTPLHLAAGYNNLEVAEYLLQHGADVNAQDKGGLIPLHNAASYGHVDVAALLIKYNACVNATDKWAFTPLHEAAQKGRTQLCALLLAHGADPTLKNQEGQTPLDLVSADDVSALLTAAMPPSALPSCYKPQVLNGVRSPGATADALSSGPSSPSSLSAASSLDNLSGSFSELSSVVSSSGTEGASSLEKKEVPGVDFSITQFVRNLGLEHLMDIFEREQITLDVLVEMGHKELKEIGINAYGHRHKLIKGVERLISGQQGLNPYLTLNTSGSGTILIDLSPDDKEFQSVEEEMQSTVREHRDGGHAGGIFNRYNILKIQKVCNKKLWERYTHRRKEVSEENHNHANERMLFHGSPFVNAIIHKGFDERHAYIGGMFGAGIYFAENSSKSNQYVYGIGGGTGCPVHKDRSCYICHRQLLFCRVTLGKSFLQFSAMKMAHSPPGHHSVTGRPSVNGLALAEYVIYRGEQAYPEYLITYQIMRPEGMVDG
Test: In vitro Scintillation Proximity Assay (SPA) for TANK-2 inhibitory activity
Assay type: biochemical
In short: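 Results are pIC50 values, with IC50 interpolated linearly around 50% of blank-subtracted control cpm. They come from a scintillation proximity read of TANK-2 (8 μg/ml) self-modification with [3H]-NAD+/NAD, incubated 120 min at room temperature in pH 7.4 Tris buffer containing MgCl2 and DTT. Compounds were first screened at 10^−5 M.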

[1] = read-out: in vitro SPA assay TANK-2 pIC50 (converted)

Compound: CCc1cc2ccc(C(C)(C#N)Cc3nc(C#N)cc(OC)n3)cc2[nH]c1=O (single isomer, unassigned) [Compound 204]
- IC50 (in vitro SPA assay TANK-2 pIC50): 158 nM

Compound: CCc1cc2c(OC)cc(C(C)(C#N)Cc3nc(OC)cc(OC)n3)cc2[nH]c1=O (single isomer, unassigned) [Compound 230]
- IC50 [1]: 20 nM

Compound: CCc1cc2ccc([C@@](C)(C#N)CCOc3ccc(C#N)cc3)cc2[nH]c1=O (single isomer, unassigned) [Compound 273]
- IC50 [1]: 100 nM

Compound: CCc1cc2ccc([C@](C)(C#N)CCOc3ccc(C#N)cc3)cc2[nH]c1=O (single isomer, unassigned) [Compound 275]
- IC50 [1]: 63.1 nM

Compound: CCc1cc2ccc([C@](C)(C#N)Cc3cccc(/C=C/S(C)(=O)=O)c3)cc2[nH]c1=O (single isomer, unassigned) [Compound 291]
- IC50 [1]: 126 nM

Compound: CCc1cc2ccc([C@@](C)(C#N)Cc3cccc(C#CCO)c3)cc2[nH]c1=O (single isomer, unassigned) [Compound 295]
- IC50 [1]: 126 nM

Compound: CCc1cc2ccc([C@](C)(C#N)Cc3cccc(C#CCO)c3)cc2[nH]c1=O (single isomer, unassigned) [Compound 296]
- IC50 [1]: 200 nM

Compound: CCc1cc2ccc([C@@](C)(C#N)Cc3cc(OC)nc(C)n3)cc2[nH]c1=O (single isomer, unassigned) [Compound 361]
- IC50 [1]: 50.1 nM

Compound: CCc1cc2ccc([C@](C)(C#N)Cc3cc(OC)nc(C)n3)cc2[nH]c1=O (single isomer, unassigned) [Compound 362]
- IC50 [1]: 126 nM

Compound: Cc1cc2ccc([C@@](C)(C#N)C3CCc4ccccc43)cc2[nH]c1=O (single isomer, unassigned) [Compound 385]
- IC50 [1]: 2000 nM

Compound: Cc1cc2ccc([C@](C)(C#N)C3CCc4ccccc43)cc2[nH]c1=O (single isomer, unassigned) [Compound 386]
- IC50 [1]: 1260 nM

Compound: CCc1cc2ccc(C(C)(C#N)Cc3cccc(OCCCN4CCNCC4)c3)cc2[nH]c1=O (centres unmarked) [Compound 25]
- IC50 [1]: 50.1 nM

Compound: CCc1cc2ccc(C(C#N)(Cc3ccccc3)c3ccc(C#N)cc3)cc2[nH]c1=O (centres unmarked) [Compound 26]
- IC50 [1]: 251 nM

Compound: CCc1cc2ccc(C(C#N)(Cc3ccccc3)c3ccccc3)cc2[nH]c1=O (centres unmarked) [Compound 27]
- IC50 [1]: 631 nM

Compound: CCc1cc2ccc(C(C#N)(Cc3ccccc3)C3CC3)cc2[nH]c1=O (centres unmarked) [Compound 29]
- IC50 [1]: 31.6 nM

Compound: CCc1cc2ccc(C(C#N)(Cc3ccccc3)C(C)C)cc2[nH]c1=O (centres unmarked) [Compound 30]
- IC50 [1]: 794 nM

Compound: CCCC(C#N)(Cc1ccccc1)c1ccc2cc(CC)c(=O)[nH]c2c1 (centres unmarked) [Compound 31]
- IC50 [1]: 251 nM

Compound: CCc1cc2ccc(C(C)(C#N)Cc3cc(OC)ccc3F)cc2[nH]c1=O (centres unmarked) [Compound 171]
- IC50 [1]: 200 nM

Compound: CCc1cc2ccc(C(C)(C#N)Cc3cccc(-c4ccc[nH]4)c3)cc2[nH]c1=O (centres unmarked) [Compound 176]
- IC50 [1]: 158 nM

Compound: CCc1cc2ccc(C(C)(C#N)Cc3cccc(CCS(C)(=O)=O)c3)cc2[nH]c1=O (centres unmarked) [Compound 178]
- IC50 [1]: 200 nM

Compound: Cc1cc2ccc(C(C)(C#N)Cc3cccc(C=Cc4ccccc4)c3)cc2[nH]c1=O (centres unmarked) [Compound 179]
- IC50 [1]: 2510 nM

Compound: CCc1cc2ccc(C(C)(C#N)Cc3cccc(/C=N/OC)c3)cc2[nH]c1=O (centres unmarked) [Compound 185]
- IC50 [1]: 158 nM

Compound: CCc1cc2ccc(C(C)(C#N)Cc3cccc(C(=N)NO)c3)cc2[nH]c1=O (centres unmarked) [Compound 186]
- IC50 [1]: 79.4 nM

Compound: CCc1cc2ccc(C(C)(C#N)Cc3cccc(OCCCC#N)c3)cc2[nH]c1=O (centres unmarked) [Compound 194]
- IC50 [1]: 126 nM

Compound: CCc1cc2ccc(C(C)(C#N)Cc3cccc(OCCC#N)c3)cc2[nH]c1=O (centres unmarked) [Compound 195]
- IC50 [1]: 398 nM

Compound: C#CCOc1cccc(CC(C)(C#N)c2ccc3cc(CC)c(=O)[nH]c3c2)c1 (centres unmarked) [Compound 196]
- IC50 [1]: 316 nM

Compound: CCc1cc2ccc(C(C)(C#N)COCc3ccccc3)cc2[nH]c1=O (centres unmarked) [Compound 197]
- IC50 [1]: 63.1 nM

Compound: CCc1cc2ccc(C(C)(C#N)Cc3cccc(OCCS(C)(=O)=O)c3)cc2[nH]c1=O (centres unmarked) [Compound 201]
- IC50 [1]: 200 nM

Compound: CCc1cc2ccc(C(C)(C#N)Cc3nc(Cl)cc(OC)n3)cc2[nH]c1=O (centres unmarked) [Compound 202]
- IC50 [1]: 251 nM

Compound: CCc1cc2ccc(C(C)(C#N)Cc3nc(N(C)C)cc(N(C)C)n3)cc2[nH]c1=O (centres unmarked) [Compound 205]
- IC50 [1]: 200 nM

Compound: CCc1cc2ccc(C(C)(C#N)Cc3cccc(N4CCC(N(C)C)C4)n3)cc2[nH]c1=O (centres unmarked) [Compound 209]
- IC50 [1]: 501 nM

Compound: CCc1cc2ccc(C(C)(C#N)Cc3cccc(C#Cc4cncn4C)n3)cc2[nH]c1=O (centres unmarked) [Compound 217]
- IC50 [1]: 158 nM

Compound: CCc1cc2ccc(C(C)(C#N)Cc3cccc(N(C)CCc4ccccc4)n3)cc2[nH]c1=O.Cl (centres unmarked) [Compound 220]
- IC50 [1]: 1000 nM

Compound: CCc1cc2ccc(C(C)(C#N)Cc3cccc(C#N)[n+]3[O-])cc2[nH]c1=O (centres unmarked) [Compound 228]
- IC50 [1]: 15.8 nM

Compound: CCc1cc2c(OC)cc(C(C)(C#N)Cc3nc(OC)cc(OC)n3)cc2[nH]c1=O (centres unmarked) [Compound 229]
- IC50 [1]: 10 nM

Compound: CCc1cc2ccc(C(C)(C#N)CN3CCN(c4ccccn4)CC3)cc2[nH]c1=O (centres unmarked) [Compound 233]
- IC50 [1]: 158 nM

Compound: Cc1nc(-c2ccccc2)sc1CC(C)(C#N)c1ccc2cc(C)c(=O)[nH]c2c1 (centres unmarked) [Compound 235]
- IC50 [1]: 1000 nM

Compound: CCc1cc2ccc(C(C)(C#N)Cc3cccc4c3CCN4)cc2[nH]c1=O (centres unmarked) [Compound 237]
- IC50 [1]: 126 nM

Compound: CCc1cc2ccc(C(C)(C#N)Cc3cccc(C(=O)OC(C)C)c3)cc2[nH]c1=O (centres unmarked) [Compound 255]
- IC50 [1]: 794 nM

Compound: Cc1cc2ccc(C(C)(C#N)Cc3cccc(I)c3)cc2[nH]c1=O (centres unmarked) [Compound 256]
- IC50 [1]: 1260 nM

Compound: CCc1cc2ccc(C(C)(C#N)Cc3cccc(NC)c3)cc2[nH]c1=O (centres unmarked) [Compound 257]
- IC50 [1]: 251 nM

Compound: CCc1cc2ccc(C(C)(C#N)Cc3cc(Br)cc(N(C)C)c3)cc2[nH]c1=O (centres unmarked) [Compound 260]
- IC50 [1]: 251 nM

Compound: Cc1cc2ccc(C(C)(C#N)Cc3cccc(OCC4CCOCC4)c3)cc2[nH]c1=O (centres unmarked) [Compound 261]
- IC50 [1]: 2510 nM

Compound: CCc1cc2ccc(C(C)(C#N)Cc3cc(F)ccc3F)cc2[nH]c1=O (centres unmarked) [Compound 280]
- IC50 [1]: 126 nM

Compound: CCc1cc2ccc(C(C)(C#N)Cc3ccc(F)c(F)c3)cc2[nH]c1=O (centres unmarked) [Compound 281]
- IC50 [1]: 158 nM

Compound: CCc1cc2ccc(C(C)(C#N)Cc3cc(C(F)(F)F)ccc3F)cc2[nH]c1=O (centres unmarked) [Compound 283]
- IC50 [1]: 398 nM

Compound: CCOc1cccc(CC(C)(C#N)c2ccc3cc(CC)c(=O)[nH]c3c2)c1 (centres unmarked) [Compound 285]
- IC50 [1]: 251 nM

Compound: CCc1cc2ccc(C(C)(C#N)Cc3cccc(OC)c3F)cc2[nH]c1=O (centres unmarked) [Compound 286]
- IC50 [1]: 200 nM

Compound: CCc1cc2ccc(C(C)(C#N)Cc3cc(C(C)C)ccc3OC)cc2[nH]c1=O (centres unmarked) [Compound 288]
- IC50 [1]: 1000 nM

Compound: CCc1cc2ccc(C(C)(C#N)Cc3cc(OC)c(OC)c(OC)c3)cc2[nH]c1=O (centres unmarked) [Compound 289]
- IC50 [1]: 251 nM

Compound: CCc1cc2ccc(C(C)(C#N)Cc3cccc(/C=N/O)c3)cc2[nH]c1=O (centres unmarked) [Compound 299]
- IC50 [1]: 158 nM

Compound: CCc1cc2ccc(C(C)(C#N)CN(C)Cc3ccc(C#N)cc3)cc2[nH]c1=O (centres unmarked) [Compound 300]
- IC50 [1]: 398 nM

Compound: CCc1cc2ccc(C(C)(C#N)CNCc3ccc(C#N)cc3)cc2[nH]c1=O (centres unmarked) [Compound 302]
- IC50 [1]: 100 nM

Compound: Cc1cc2ccc(C(C)(C#N)Cc3cccc(Oc4ccccc4)c3)cc2[nH]c1=O (centres unmarked) [Compound 305]
- IC50 [1]: 1580 nM

Compound: CCc1cc2ccc(C(C)(C#N)Cc3nc(C#N)cc(OC)n3)cc2[nH]c1=O (centres unmarked) [Compound 313]
- IC50 [1]: 100 nM

Compound: CCc1cc2ccc(C(C)(C#N)Cc3cc(C#N)nc(OC)c3)cc2[nH]c1=O (centres unmarked) [Compound 314]
- IC50 [1]: 25.1 nM

Compound: CCc1cc2ccc(C(C)(C#N)Cc3cc(N(C)C)nc(C#N)n3)cc2[nH]c1=O (centres unmarked) [Compound 317]
- IC50 [1]: 100 nM

Compound: CCc1cc2ccc(C(C)(C#N)Cc3nc(C#N)cc(N(C)C)n3)cc2[nH]c1=O (centres unmarked) [Compound 318]
- IC50 [1]: 126 nM

Compound: CCc1cc2ccc(C(C)(C#N)Cc3cc(C#N)nc(C)n3)cc2[nH]c1=O (centres unmarked) [Compound 319]
- IC50 [1]: 63.1 nM

Compound: CCc1cc2ccc(C(C)(C#N)Cc3cc(N(C)C)nc(N(C)C)n3)cc2[nH]c1=O (centres unmarked) [Compound 320]
- IC50 [1]: 200 nM

Compound: CCc1cc2ccc(C(C)(C#N)Cc3cc(N(C)C)nc(C)n3)cc2[nH]c1=O (centres unmarked) [Compound 322]
- IC50 [1]: 251 nM

Compound: CCc1cc2ccc(C(C)(C#N)Cc3cc(Cl)nc(N(C)C)c3)cc2[nH]c1=O (centres unmarked) [Compound 323]
- IC50 [1]: 251 nM
